The values that follow are results of earlier work, collected in patent US20090005431A1, “SUBSTITUTED PYRROLIDINES” (AUSPEX PHARMACEUTICALS, INC., priority 2007, published 2009).

What all share (details): human recombinant muscarinic receptor subtypes; cited from earlier work
Data set [1] deals with M3 receptor compared to M1.
In data set [2] the test system is M3 receptor compared to M5.
For data set [3], the system named is M3 receptor compared to M2.
Data set [4] relates to M3 receptor compared to M4.

For `NC(=O)C(c1ccccc1)(c1ccccc1)[C@@H]1CCN(CCc2ccc3c(c2)CCO3)C1` (stereo in doubt) [darifenacin, 2-{1-[2-(2,3-dihydro-benzofuran-5-yl)-ethyl]-pyrrolidin-3-yl}-2,2-diphenyl-acetamide], in data set [1], the “greater affinity for M3 compared to M1” value is on record as 9 fold. In addition, the “greater affinity for M3 compared to M5” value in data set [2] was 12 fold. Further, the “greater affinity for M3 compared to M2” value in data set [3] was 59 fold. For the same compound, in data set [4], the “greater affinity for M3 compared to M4” value is reported as 59 fold.
